Literature values in patent US11980686B1, “Agomelatine oral transmucosal film” (Xiamen LP Pharmaceutical Co., Ltd., priority 2023, dated 2024).

Details: oral tablet

Inter-individual variation (AUC): 104%
Intra-subject variation (AUC): 157%
SMILES: COc1ccc2cccc(CCNC(C)=O)c2c1 [agomelatine, Agomelatine]
